This is an account of results in article PMC4963854, “Mapping Protein–Protein Interactions of the Resistance-Related Bacterial Zeta Toxin–Epsilon Antitoxin Complex (ε2ζ2) with High Affinity Peptide Ligands Using Fluorescence Polarization” (Toxins, 2016).

For assay [1], the target named is T1, Epsilon protein (His6-Epsilon) (Streptococcus pyogenes, UniProt Q57231).
T1 construct: His6 (N); made in house; host or cells: E. coli BL21 (DE3)
T1 sequence (Q57231 1-90): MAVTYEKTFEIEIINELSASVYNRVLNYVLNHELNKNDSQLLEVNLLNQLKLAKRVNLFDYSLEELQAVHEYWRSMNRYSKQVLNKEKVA
Nature of the assay: Fluorescence polarization (FP) direct binding assay of fluorescein-labeled peptides to Epsilon. Here is the method: Binding affinities of the fluorescein-labeled peptides Fluo-(I–III) with Epsilon protein were determined in a fluorescence polarization (FP) assay. For the purpose, 10 nM solutions of each fluorescein-labeled peptide containing different concentrations of Epsilon (from 5 nM to 7.5 µM) were irradiated with polarized light at the excitation wavelength of 470 nm and the polarization of the emitted light was recorded in mP at […] (see Section 4).
Figure 3 Dose-response curve for the binding of Fluo-(I–II) to the Epsilon protein. The fluorescent-labeled peptides Fluo-(I–II) at a concentration of 10 nM were treated with increasing concentrations of Epsilon (from 0.05 nM to 2.5 µM) in 10 mM HEPES assay buffer, pH 7.5, with 0.1% Tween-20. Values are plotted as the means ± standard deviation (n = 3) from three independent experiments.
For fluorescence polarization measurements, peptides were dissolved in DMSO at 10 mM and diluted in 10 mM HEPES (pH 7.5) containing 0.1% Tween-20. The assay was conducted on untreated black 384-well microtiter plates (low volume, non-binding surface, round bottom, non-sterile black polystyrene, Corning B.V. Life Sciences, Nr. 3676, Kennebunk, ME, USA) in a final volume of 10 µL, using 10 mM HEPES (pH 7.5) with 0.1% Tween-20 as a buffer. The final DMSO proportion in the assay was less than 0.1%. The measurements were performed on a SAFIRE II (Tecan) microplate reader, using an excitation wavelength of 470 nm and emission wavelength of 525 nm. The final assay mixtures contained 5 µL fluorescein-labeled peptide (furnishing a final assay concentration of 10 nM), and 5 µL of increasing amounts of Epsilon protein (final concentrations ranging from 0.05 nM to 5 µM). The negative controls comprised 5 µL fluorescein-labeled peptide (maintaining a final assay concentration of 10 nM) and 5 µL 10 mM HEPES buffer (pH 7.5) containing 0.1% Tween-20. To avoid protein aggregation, Tween-20 (0.1% final concentration) was used as a detergent in all experiments. After adding the fluorescent peptide, the plates were centrifuged (2000 min^−1, 3 min) and shaken briefly (2000 rpm for 10 min at room temperature), and polarization of the emitted fluorescence was directly recorded. In every case, the well containing only the fluorescein-labeled peptide was subtracted from the assay well as background. The polarization values (mP) were plotted as a function of the logarithm of the protein concentration. […] All of the experiments were carried out in duplicate in three independent experiments, and the results are expressed as the mean ± standard deviation (SD).

Assay [2] concerns the target T1, Epsilon protein (His6-Epsilon). Nature of the assay: Competitive FP binding assay: acetylated peptides displace fluorescein-labeled peptide from Epsilon. To be noted: unlabeled peptide 0.01-100 µM, 10 mM HEPES pH 7.5, 0.1% Tween-20, 384-well, duplicates in three independent experiments ± SD. An excerpt: The fluorescent high-affinity peptide ligands could be the basis for an especially economic and reliable high-throughput assay, if the fluorescence polarization read-out can be used for the screening of potential ligands that are able to bind to Epsilon in a competitive binding assay. For this purpose, we utilized the unlabeled peptides Ac-Ia and Ac-IIb containing the same amino acid sequence as the initial peptides but with their N-terminus modified by the introduction of an acetyl group. The competitive binding assays were performed by using appropriate amounts of Epsilon protein based on the binding affinity, expressed in terms of the KD value, for the labeled peptides Fluo-Ia and Fluo-IIb. In both cases, the protein concentration was set to the KD value and 5-fold the KD value to study the influence of the protein concentration on the IC50-value of every acetylated peptide. Thus, the Epsilon protein (100 nM or 500 nM final concentration) was treated with Fluo-Ia or Fluo-IIb (10 nM final concentration). After incubation, each mixture was treated with different concentrations of the unlabeled peptides Ac-Ia and Ac-IIb, ranging from 0.01 to 100 µM. […] The ability to identify active compounds (hits) from a particular high-throughput screening (HTS) assay depends largely on the suitability or quality of the assay conditions used in the screening. […]
Figure 5 Competitive binding of the fluorescein-labeled peptides Fluo-Ia and Fluo-IIb to the Epsilon protein in 384-well plates. […] Fluorescence polarization was measured on a SAFIRE II (Tecan, Crailsheim, Germany) microplate reader, using an excitation wavelength of 470 nm and emission wavelength of 525 nm. […]
For the competitive binding assays, unlabeled peptides containing the same amino acid sequence as the previous one but with the N-terminal end modified by the introduction of acetyl group were used. […] The measurements were performed on a SAFIRE II microplate reader (Tecan), using an excitation wavelength of 470 nm and emission wavelength of 525 nm. […]

The mark [3] stands for this setting: 10 nM fluorescein-labeled peptide titrated with Epsilon, 10 mM HEPES pH 7.5, 0.1% Tween-20, no NaCl, ex 470 nm/em 525 nm, EC50 taken as KD (Q close to 1), three independent experiments, n = 3 ± SD, SD, read-out: Binding constant KD.

Where two headings read alike, the source gives them in different places. Ends that are not written are not given here. Peptide text beside a SMILES is read from it. * marks the point of attachment. 5FAM = O=C1OC2(c3ccc(O)cc3Oc3cc(O)ccc32)c2ccc(C(=O)*)cc21

On to `CC(C)C[C@H](NC(=O)c1ccc2c(c1)C(=O)OC21c2ccc(O)cc2Oc2cc(O)ccc21)C(=O)N[C@@H](CCCNC(=N)N)C(=O)N[C@@H](CO)C(=O)N[C@@H](C)C(=O)N[C@@H](CCC(=O)O)C(=O)N[C@@H](Cc1ccccc1)C(=O)N[C@@H](CCC(=O)O)C(=O)N[C@@H](CCC(=O)O)C(=O)N[C@H](C(=O)N[C@@H](CCC(N)=O)C(=O)O)[C@@H](C)O` [Fluo-IIa] (5FAM-LRSAEFEETQ-OH), for which the Kd in assay [1] (setting [3]) stood at 169 ± 16 nM.
For the compound `CC[C@H](C)[C@H](NC(=O)[C@H](CC(C)C)NC(=O)[C@H](CCC(=O)O)NC(=O)[C@H](CCC(=O)O)NC(=O)[C@H](Cc1c[nH]cn1)NC(=O)[C@H](CC(N)=O)NC(=O)[C@H](CC(C)C)NC(=O)[C@H](CC(N)=O)NC(=O)[C@H](CC(=O)O)NC(=O)c1ccc2c(c1)C(=O)OC21c2ccc(O)cc2Oc2cc(O)ccc21)C(=O)N[C@@H](CCC(N)=O)C(=O)O` [Fluo-Ie] (5FAM-DNLNHEELIQ-OH; C-terminus assumed), the “ΔmP (dynamic range of polarization)” value in assay [1] (10 nM fluorescein-labeled peptide titrated with Epsilon, 10 mM HEPES pH 7.5, 0.1% Tween-20) worked out at 115. Also, the Kd in assay [1] (setting [3]) was found to be 175 ± 8.9 nM.
Ac-GDTSLRSAEFEETQ [Ac-IIb]: in assay [2] (500 nM Epsilon, 10 nM Fluo-IIb, read-out: IC50, competition with Fluo-IIb, 500 nM Epsilon), the IC50 (as a rule, the concentration needed to halve the response being measured) was 15300 ± 2500 nM.
For the compound `CC(C)C[C@H](NC(=O)[C@H](CO)NC(=O)[C@@H](NC(=O)[C@H](CC(=O)O)NC(=O)CNC(=O)[C@H](CO)NC(=O)CNC(=O)c1ccc2c(c1)C(=O)OC21c2ccc(O)cc2Oc2cc(O)ccc21)[C@@H](C)O)C(=O)N[C@@H](CCCNC(=N)N)C(=O)N[C@@H](CO)C(=O)N[C@@H](C)C(=O)N[C@@H](CCC(=O)O)C(=O)N[C@@H](Cc1ccccc1)C(=O)N[C@@H](CCC(=O)O)C(=O)N[C@@H](CCC(=O)O)C(=O)N[C@H](C(=O)N[C@@H](CCC(N)=O)C(=O)O)[C@@H](C)O` [Fluo-IIc] (5FAM-GSGDTSLRSAEFEETQ-OH), the Kd in assay [1] (setting [3]) is 134 ± 15 nM.
On the same count and under the same terms, the value for `CC[C@H](C)[C@H](NC(=O)[C@H](CC(C)C)NC(=O)[C@H](CCC(=O)O)NC(=O)[C@H](CCC(=O)O)NC(=O)[C@H](Cc1c[nH]cn1)NC(=O)[C@H](CC(N)=O)NC(=O)[C@H](CC(=O)O)NC(=O)[C@H](CC(N)=O)NC(=O)[C@H](CC(C)C)NC(=O)[C@H](CCCNC(=N)N)NC(=O)[C@H](CC(N)=O)NC(=O)[C@H](CCC(=O)O)NC(=O)[C@H](Cc1ccccc1)NC(=O)c1ccc2c(c1)C(=O)OC21c2ccc(O)cc2Oc2cc(O)ccc21)C(=O)N[C@@H](CCC(N)=O)C(=O)O` [Fluo-Ib] (5FAM-FENRLNDNHEELIQ-OH) was 89.5 ± 13.9 nM.
On the same count and under the same terms, to `CC(C)C[C@H](NC(=O)[C@H](CO)NC(=O)[C@@H](NC(=O)[C@H](CC(=O)O)NC(=O)CNC(=O)c1ccc2c(c1)C(=O)OC21c2ccc(O)cc2Oc2cc(O)ccc21)[C@@H](C)O)C(=O)N[C@@H](CCCNC(=N)N)C(=O)N[C@@H](CO)C(=O)N[C@@H](C)C(=O)N[C@@H](CCC(=O)O)C(=O)N[C@@H](Cc1ccccc1)C(=O)N[C@@H](CCC(=O)O)C(=O)N[C@@H](CCC(=O)O)C(=O)N[C@H](C(=O)N[C@@H](CCC(N)=O)C(=O)O)[C@@H](C)O` [Fluo-IIb] (5FAM-GDTSLRSAEFEETQ-OH) belongs 99.5 ± 12.2 nM.
Take Ac-LNDNHEELIQ [Ac-Ia]: the concentration for half-maximal inhibition (IC50) in assay [2] (100 nM Epsilon, 10 nM Fluo-Ia, read-out: IC50, competition with Fluo-Ia, 100 nM Epsilon) was determined as 18600 ± 4640 nM; in assay [2] (500 nM Epsilon, 10 nM Fluo-Ia, read-out: IC50, competition with Fluo-Ia, 500 nM Epsilon), 51800 ± 7400 nM.
Regarding `CC[C@H](C)[C@H](NC(=O)[C@H](CC(C)C)NC(=O)[C@H](CCC(=O)O)NC(=O)[C@H](CCC(=O)O)NC(=O)[C@H](Cc1c[nH]cn1)NC(=O)[C@H](CC(N)=O)NC(=O)[C@H](CC(=O)O)NC(=O)[C@H](CC(N)=O)NC(=O)[C@H](CC(C)C)NC(=O)c1ccc2c(c1)C(=O)OC21c2ccc(O)cc2Oc2cc(O)ccc21)C(=O)N[C@@H](CCC(N)=O)C(=O)O` [Fluo-Ia] (5FAM-LNDNHEELIQ-OH), the Kd was 105 nM in assay [1] (10 nM Fluo-Ia, 10 mM HEPES pH 7.5, 0.1% Tween-20, plus 10 mM NaCl, read-out: Binding constant in presence of 10 mM NaCl) and 74.5 ± 10.5 nM in assay [1] (setting [3]).
